Patent publication EP2666869A1 (priority 2012, dated 2013)
Several values for one entry are separate records, joined by “and”; a condition that tells them apart may be missing. Identical values can stand only once. Like-named read-outs stand apart in the source and are kept apart here.

Legend:
[1] = Sorafenib pharmacokinetic analysis (plasma concentrations, Bayesian estimation of AUC and Cav); assay type: in vivo, human; details: for AUC at 720 h: Cumulated sorafenib AUC, day 0 to day 30; for AUC tau at 720 h: day 30
Text: (§1) Adverse events were reported and graded according to the National Cancer Institute Common Terminology Criteria (NCI-CTCAE) on days 15 and 30 after treatment initiation. Diarrhea and HFSR were graded according to the NCI-CTCAE 3.0 version, while hypertension was retrospectively graded according to the 4.0 version. In case of grade 4 hematological toxicity or grade 3 or 4 non-hematological toxicity, treatment was discontinued until side effects recovered to grade 1, or returned to baseline. Subsequent dose reductions were left at the discretion of the treating physician.
This Bayesian estimator is based on a 1-compartment model with saturated absorption, first-order intestinal loss and linear elimination.
For descriptive statistics, qualitative variables were expressed in numbers and percentages and quantitative ones in medians [inter-quartile intervals]. Glomerular filtration rate (GFR) and lean body mass (LBM) were estimated using the Modification of the Diet in Renal Disease (MDRD) formula and the Green's formula, respectively. […] Then, the relationships between the dose-standardized AUC and other variables were tested using two-sample Wilcoxon tests or Kruskal-Wallis tests for qualitative variables with two modalities or more than two modalities, respectively, and by Spearman rank correlation coefficient tests for quantitative ones. The following variables were tested: age, gender, ECOG status, weight, body mass index (BMI), LBM, primary tumor site, polymorphisms of CYP3A5 (rs776746), UGT1A9 (rsl78868320, rs6714486, rs72551330), ABCB1 (rs2231137, rs1045642), ABCG2 (rs2231137, rs2231142, rs2622604), alanine aminotransferase (ALT), aspartate aminotransferase (AST), alkaline phosphatase (ALP), gamma-glutamyl transpeptidase (GGT), bilirubin, albumin, C-Reactive Protein, creatinine and MDRD GFR. A stepwise multiple linear regression was then performed with variables significant with p < 0.10 in the first step included in the regression and variables significant with p < 0.05 kept in the final model. […] The cumulated AUC between day 0 and day 30 was calculated as the sum of two areas, (0-15 days) and (15-30 days) which were estimated using the trapezoidal rule. The area was multiplied by 24 to express the result in mg/L.h. […] On day 0, Cav0 was fixed at 0 mg/L.

[2] = Toxicity assessment (NCI-CTCAE grading) and risk factor analysis in the first month of sorafenib treatment; assay type: in vivo, human
Text: as §1
For descriptive statistics, qualitative variables were expressed in numbers and percentages and quantitative ones in medians [inter-quartile intervals]. Glomerular filtration rate (GFR) and lean body mass (LBM) were estimated using the Modification of the Diet in Renal Disease (MDRD) formula and the Green's formula, respectively. […] Then, the relationships between the dose-standardized AUC and other variables were tested using two-sample Wilcoxon tests or Kruskal-Wallis tests for qualitative variables with two modalities or more than two modalities, respectively, and by Spearman rank correlation coefficient tests for quantitative ones. The following variables were tested: age, gender, ECOG status, weight, body mass index (BMI), LBM, primary tumor site, polymorphisms of CYP3A5 (rs776746), UGT1A9 (rsl78868320, rs6714486, rs72551330), ABCB1 (rs2231137, rs1045642), ABCG2 (rs2231137, rs2231142, rs2622604), alanine aminotransferase (ALT), aspartate aminotransferase (AST), alkaline phosphatase (ALP), gamma-glutamyl transpeptidase (GGT), bilirubin, albumin, C-Reactive Protein, creatinine and MDRD GFR. A stepwise multiple linear regression was then performed with variables significant with p < 0.10 in the first step included in the regression and variables significant with p < 0.05 kept in the final model. For the analysis of sorafenib-induced toxicities in the first month of treatment, we used dichotomous end points expressed as any toxicity ≥ grade 3 (yes or no), or grade ≥ 2 HFSR (yes or no), or grade ≥ 2 diarrhea (yes or no), or grade ≥ 2 hypertension (yes or no). The cumulated AUC between day 0 and day 30 was calculated as the sum of two areas, (0-15 days) and (15-30 days) which were estimated using the trapezoidal rule. The area was multiplied by 24 to express the result in mg/L.h. […] On day 0, Cav0 was fixed at 0 mg/L.
The univariate analysis of toxicity risk factors was carried out using two sample Wilcoxon tests for quantitative variables and Chi square or Fisher exact tests for qualitative ones. Fisher exact tests were performed as soon as at least one expected value was lower than 5. […] The multivariate analysis was performed by a stepwise logistic regression. Variables with p-values < 0.10 in the univariate analysis were included in the regression and variables with a Wald test p-value < 0.05 were kept in the final model. All the tests were two-sided, and they were considered significant when p-values were < 0.05. The receiver operating characteristic (ROC) curve was constructed to examine the value of an AUCcum threshold predicting a toxicity of grade ≥ 3 in the first month of treatment. The diagnostic accuracy values of sensitivity and specificity were determined, as well as the positive predictive value (PPV) and the negative predictive value (NPV). Computations were performed using the SAS V9 statistical package (SAS institute, Cary, NC).

[3] = AUCcum threshold value of 3,161 mg/L.h, toxicity of grade ≥ 3

Compound: CNC(=O)c1cc(Oc2ccc(NC(=O)Nc3ccc(Cl)c(C(F)(F)F)c3)cc2)ccn1 [sorafenib]
- Spearman's coefficient (rho) ([1]; dose-normalized AUC day 15 versus Creatinine (µmol/L)): -0.26
- Spearman's coefficient (rho) ([1]; dose-normalized AUC day 15 versus LBM (kg)): -0.28
- AUC at 720 h ([1]; human, plasma, patients with Hand Foot Skin Reaction ≥ grade 2, median [interquartile range]): 3310 µg·h/mL
- AUC at 720 h ([1]; human, plasma, patients with any toxicity ≥ grade 3, median [interquartile range]): 3500 µg·h/mL
- AUC at 720 h ([1]; human, plasma, patients without Hand Foot Skin Reaction ≥ grade 2, median [interquartile range]): 2250 µg·h/mL
- AUC at 720 h ([1]; human, plasma, patients without any toxicity ≥ grade 3, median [interquartile range]): 2250 µg·h/mL
- AUC tau at 360 h ([1]; human, plasma, day 15, females, read-out: median absolute AUC): 78.3 µg·h/mL
- AUC tau at 360 h ([1]; human, plasma, day 15, males, read-out: median absolute AUC): 52.4 µg·h/mL
- AUC tau at 720 h ([1]; human, plasma, females, read-out: median absolute AUC): 82.2 µg·h/mL
- AUC tau at 720 h ([1]; human, plasma, males, read-out: median absolute AUC): 55.2 µg·h/mL
- AUC tau at 12 h ([1]; human, plasma, median absolute sorafenib AUC, day 15, all patients, AUC 0 to 12 hours, median [interquartile range]): 62 µg·h/mL
- AUC tau at 720 h ([1]; human, plasma, median absolute sorafenib AUC, all patients, median [interquartile range]): 61 µg·h/mL
- NPV [2, 3]: 63.3%
- PPV [2, 3]: 75.8%
- area under the ROC curve for the AUCcum threshold ([2]; CI 95%, 61-78%): 69%
- Any toxicity ≥ grade 3: No ([2]; CYP3A5 6986 A>G AA (*1/*1)): 0 (0) n (%)
- Any toxicity ≥ grade 3: Yes ([2]; CYP3A5 6986 A>G AA (*1/*1)): 4 (100) n (%)
- Any toxicity ≥ grade 3: No ([2]; CYP3A5 6986 A>G AG (*1/*3)): 6 (67) n (%)
- Any toxicity ≥ grade 3: Yes ([2]; CYP3A5 6986 A>G AG (*1/*3)): 3 (33) n (%)
- Any toxicity ≥ grade 3: No ([2]; CYP3A5 6986 A>G GG (*3/*3)): 24 (63) n (%)
- Any toxicity ≥ grade 3: Yes ([2]; CYP3A5 6986 A>G GG (*3/*3)): 14 (37) n (%)
- Any toxicity ≥ grade 3: No ([2]; Female): 5 (33.3) n (%)
- Any toxicity ≥ grade 3: Yes ([2]; Female): 10 (66.7) n (%)
- Hand Foot Skin Reaction ≥ grade 2: No ([2]; Female): 5 (33.3) n (%)
- Hand Foot Skin Reaction ≥ grade 2: Yes ([2]; Female): 10 (66.7) n (%)
- Any toxicity ≥ grade 3: No ([2]; Male): 25 (67.6) n (%)
- Any toxicity ≥ grade 3: Yes ([2]; Male): 12 (32.4) n (%)
- Hand Foot Skin Reaction ≥ grade 2: No ([2]; Male): 25 (52.0) n (%)
- Hand Foot Skin Reaction ≥ grade 2: Yes ([2]; Male): 12 (48.0) n (%)
- Occurrence during first month of treatment: Diarrhea ([2]; No): 37 (69) n (%)
- Occurrence during first month of treatment: Hypertension ([2]; No): 28 (52) n (%)
- Occurrence during first month of treatment: Hand-foot skin reaction ([2]; No, 54 patients): 17 (31) n (%)
- AUCcum threshold predicting a toxicity of grade ≥ 3 ([2]; ROC curve, first month of treatment): 3,161 mg/L.h
- Diarrhea ≥ grade 2: No ([2]; UGT1A9 -275 T>A m/m): 0 (0) n (%)
- Diarrhea ≥ grade 2: Yes ([2]; UGT1A9 -275 T>A m/m): 0 (0) n (%)
- Diarrhea ≥ grade 2: No ([2]; UGT1A9 -275 T>A wt/m): 2 (50) n (%)
- Diarrhea ≥ grade 2: Yes ([2]; UGT1A9 -275 T>A wt/m): 2 (50) n (%)
- Diarrhea ≥ grade 2: No ([2]; UGT1A9 -275 T>A wt/wt): 43 (93) n (%)
- Diarrhea ≥ grade 2: Yes ([2]; UGT1A9 -275 T>A wt/wt): 3 (7) n (%)
- Diarrhea ≥ grade 2: No ([2]; UGT1A9 -2152 C>T m/m): 0 (0) n (%)
- Diarrhea ≥ grade 2: Yes ([2]; UGT1A9 -2152 C>T m/m): 0 (0) n (%)
- Diarrhea ≥ grade 2: No ([2]; UGT1A9 -2152 C>T wt/m): 2 (50) n (%)
- Diarrhea ≥ grade 2: Yes ([2]; UGT1A9 -2152 C>T wt/m): 2 (50) n (%)
- Diarrhea ≥ grade 2: No ([2]; UGT1A9 -2152 C>T wt/wt): 42 (93) n (%)
- Diarrhea ≥ grade 2: Yes ([2]; UGT1A9 -2152 C>T wt/wt): 3 (7) n (%)
- Occurrence during first month of treatment: Diarrhea ([2]; Yes): 17 (31) n (%)
- Occurrence during first month of treatment: Hypertension ([2]; Yes): 25 (46) n (%)
- Occurrence during first month of treatment: Hand-foot skin reaction ([2]; Yes, 54 patients): 37 (69) n (%)
- Occurrence during first month of treatment: Diarrhea ([2]; grade < 2): 12 n (%)
- Occurrence during first month of treatment: Hand-foot skin reaction ([2]; grade < 2): 15 n (%)
- Occurrence during first month of treatment: Hypertension ([2]; grade < 2): 5 n (%)
- Occurrence during first month of treatment: Diarrhea ([2]; grade ≥ 2 (grade 2-3)): 5 (9%) n (%) and 5 n (%)
- Occurrence during first month of treatment: Hand-foot skin reaction ([2]; grade ≥ 2 (grade 2-3)): 22 (41%) n (%) and 22 n (%)
- Occurrence during first month of treatment: Hypertension ([2]; grade ≥ 2 (grade 2-3)): 20 (38%) n (%) and 20 n (%)
- grade 3 or 4 toxicity: diarrhea ([2]; on days 15 or 30, 5% of the 22 patients with grade 3 or 4 toxicity): 1 n
- grade 3 or 4 toxicity: hypertension ([2]; on days 15 or 30, 27% of the 22 patients with grade 3 or 4 toxicity): 6 n
- grade 3 or 4 toxicity: HFSR ([2]; on days 15 or 30, 68% of the 22 patients with grade 3 or 4 toxicity): 15 n
- patients who experienced grade 3 or 4 toxicity ([2]; on days 15 or 30, twenty-two of 54 patients): 41%
- patients who required dose reductions because of toxic effects ([2]; over the study period): 9 n
- patients who required interruption of treatment because of toxic effects ([2]; over the study period): 10 n
- patients who required dose reductions or interruption of treatment because of toxic effects ([2]; over the study period, nineteen patients): 35%
- toxic death in relation with sorafenib ([2]; study period): no toxic death
